Patent publication US5958416A, “Heat shock protein peptides and methods for modulating autoimmune central nervous system disease” (Regents of the University of Minnesota, priority 1995, dated 1999)
“Also recorded” adds a separate entry of the source. Where two headings read alike, the source gives them in different places. No end group written: not given here.

Experiments:
[1] = system: experimental autoimmune encephalomyelitis (EAE); experiment: Modulation of EAE by pre-immunization with CNP 173-184 peptide-KLH (Example 4); type: in vivo, Lewis rats
[2] = system: IgG antibodies in CSF and sera of MS and OND patients; experiment: Dot-blot analysis of patient CSF and sera for antibodies to CNP 173-184 peptide; type: binding, human
Method: Cerebrospinal fluid (CSF) and sera from MS patients and controls were analyzed for antibodies to the peptide derived from CNP isoform 2 (corresponding to amino acids 173-184) using dot-blot analyses. Samples from nine MS patients and five patients with other neurologic diseases (OND) were analyzed. The CNP 173-184 peptide coupled to BSA was adsorbed onto nitrocellulose membranes. Control wells received BSA alone. Two dilutions of paired spinal fluids and sera were added to the wells and the amount of antibody binding determined using peroxidase labeled anti-human IgG and an enhanced chemiluminescent assay (ECL Western Blotting Kit; Amersham International, Plc., Buckinghamshire, England). Using the public domain program, Image 1.40 (available from NIH), the integrated densities of the dots in the CNP 173-184 peptide wells and BSA wells were determined.

[3] = system: experimental autoimmune encephalomyelitis (EAE); experiment: Modulation of EAE by pre-immunization with HSP65 peptides not coupled to KLH (Example 9); type: in vivo, Lewis rats; settings: 50 μg peptide not coupled to KLH, s.c., in IFA; 1 mg GPSC in CFA four weeks later
[4] = system: Peripheral blood lymphocytes (PBL); type: cell-based, human
[5] = positive/tested, peptide coupled to BSA on nitrocellulose, data not shown
[6] = chi-square p, PBL, listed as #6

For “Leu-Lys-Lys-Leu-Lys-Pro-Gly-Leu-Glu-Lys-Asp-Phe (LKKLKPGLEKDF; also: coupled to BSA) [CNP 173-184 peptide, coupled to BSA in blots]”, the “EAE after GPSC challenge, pre-immunization in IFA” value ([1]; 50 μg s.c. in IFA, GPSC in CFA five to six weeks later) was “suppression of EAE”, the “p, difference in EAE severity between peptide-IFA and KLH-IFA pre-immunized rats” value ([1]; day 13 post GPSC-CFA immunization) was < 0.02 and the “Integrated densities in peptide wells relative to BSA wells” value ([2]; MS CSF) was “approximately twofold higher”. The “p, MS versus OND patients with CSF antibodies to the peptide” value ([2]; chi square analysis) was < 0.03, the “CSF samples with antibodies to the peptide, MS patients” value [2, 5] was 5/9 and the “CSF samples with antibodies to the peptide, OND patients” value [2, 5] was 0/5. For the same substance, the “Number of MS patients with antibodies to the peptide in sera” value ([2]; sera) was 3 and the “Number of OND patients with antibodies to the peptide in sera” value ([2]; sera) was 1.
“lys-gly-tyr-ile-ser-gly-tyr-phe-val-thr-asp-ala-glu-arg-gln (KGYISGYFVTDAERQ) [Peptide #6]” was tested, and the “Protection against EAE after pre-immunization with the peptide” value [3] was “did protect against or decrease the symptoms of EAE; also recorded: significantly decreases both the incidence and severity of EAE; also recorded: protects rats against EAE”, the “T cell proliferative response elicited by the peptide” value ([4]; PBL from MS and OND patients, greater than two-fold above background considered significant) was “elicited specific T cell proliferative responses in some MS patients compared with OND patients” and the “Correlation of responsiveness to the peptide with responsiveness to M. tuberculosis, OND patients” value ([4]; Pearson correlation, PBL) was “No significant correlations”. The “p, correlation of responsiveness to the peptide with responsiveness to M. tuberculosis, DR2+ MS females” value ([4]; Pearson correlation, PBL) was < 0.02, the “p, correlation of responsiveness to the peptide with responsiveness to M. tuberculosis, DR2- MS males” value ([4]; Pearson correlation, PBL) was < 0.01 and the “p, correlation of responsiveness to the peptide with responsiveness to M. tuberculosis, all MS patients” value ([4]; Pearson correlation, PBL) was < 0.01. The “Difference in frequency of proliferative response, Group A greater than Group B: MS F vs MS M” value ([4]; chi-square p, PBL) was “greater response”, the “Difference in frequency of proliferative response, Group A greater than Group B: MS F vs OND M” value ([4]; chi-square p, PBL) was “greater response” and the “Difference in frequency of proliferative response, Group A greater than Group B: MS F, DR2- VS MS M, DR2-” value ([4]; chi-square p, PBL) was “responded more strongly”. The “Difference in frequency of proliferative response, Group A greater than Group B: MS F, DR2- vs MS F, DR2+” value ([4]; chi-square p, PBL) was “N.S”, the “Difference in frequency of proliferative response, Group A greater than Group B: MS M, DR2+ VS MS F, DR2+” value ([4]; chi-square p, PBL) was “N.S” and the “Difference in frequency of proliferative response, Group A greater than Group B: MS F vs MS M” value [4, 6] was < 0.025. For the same substance, the “Difference in frequency of proliferative response, Group A greater than Group B: MS F vs OND M” value [4, 6] was < 0.0005 and the “Difference in frequency of proliferative response, Group A greater than Group B: MS F, DR2- VS MS M, DR2-” value [4, 6] was < 0.05.
